In US20090123581A1, “COLLAGEN CROSS-LINKING AGENTS ON DENTAL RESTORATIVE TREATMENT AND PREVENTIVE DENTISTRY” (THE BOARD OF TRUSTEES OF THE UNIVERSITY OF ILLINOIS, priority 2006, published 2009):
Values joined by “and” are separate entries in the source; they are usually repeats but may differ in a detail not shown here. Identical values can stand only once.

Assays:
[1] = Ultimate tensile strength (UTS) of undemineralized (mineralized) dentin after cross-linker treatment (Example 1); set-up: species or system human; conditions: 0.625% GE or 5% GD; for Ultimate tensile strength, mean: pH 7.4
From the text: Fixation Processes: Ten sound freshly extracted human molars were used in this study. The teeth were thawed, cleaned of adhering soft tissues, and the occlusal surfaces were ground flat with #320 grit Silicon Carbide paper under running water to remove part of the enamel. Flattening of the occlusal surface by removal of the cusps enables accurate sectioning of samples in beam shape. Teeth were sectioned into 0.5±0.1 by 0.5±0.1 mm thick beams (n=20 beams per tooth) with a slow speed diamond wafering blade (Buehler-Series 15LC Diamond, Lake Bluff, Ill., USA) under constant water coolant (FIG. 1A).
The slabs were randomly divided into two groups: 1) undemineralized dentin and 2) demineralized dentin (FIG. 1A). In Group 2, dentin beams were immersed in 10% phosphoric acid solution (Fisher Scientific, New Jersey, N.J.) for a period of 5 hours. X-rays were taken from the specimens to verify complete tissue demineralization. Specimens were thoroughly rinsed with distilled water for 10 minutes to remove any residue of the phosphoric acid.
Specimens from groups 1 and 2 were subdivided according to the dentin treatment (FIG. 1B). In Treatment A, specimens were immersed in PBS solution (pH: 7.4) as a control. In Treatment B, specimens were immersed in 0.5% Proanthocyanidin (MegaNatural—Polyphenolics Ind.) PBS solution (PA) at a pH of 7.4. In Treatment C, specimens were immersed in 0.625% Genipin (Wako Pure Chemical Ind.) PBS solution (GE) at a pH of 7.4. In Treatment D, specimens were immersed in 5% glutaraldehyde solution (GD) (Fisher Scientific, New Jersey, N.J.) at a pH of 7.4. Specimens were kept in their respective solutions for 4 and 40 hours at room temperature. After the incubation periods, specimens were thoroughly rinsed with distilled and deionized water to remove any remains of cross-linking agents and buffer.
UTS testing: For UTS evaluation, the specimens were glued with a cyanoacrylate adhesive (Zapit—Dental Ventures of America Inc., Corona, Calif.) to a Ciucchi's jig, which was mounted on a universal testing machine (EZ Test, Shimazu Co., Kyoto, Japan) and subjected to microtensile testing at a crosshead speed of 1 mm/min (FIG. 1C). Means and standard deviations were calculated and expressed in microtensile bond strengths (MPa). Statistical analysis was performed using a two-way ANOVA and Fisher's PLSD tests (p<0.05).

[2] = Tensile bond strength (TBS) of a total-etch adhesive with or without proteolytic challenge (Example 5); set-up: species or system human; conditions: for TBS (tensile bond strength): 5% glutaraldehyde 1 hour after etching, One-Step adhesive
Protocol: To evaluate the effect of glutaraldehyde on the tensile bond strength (TBS) of a total-etch adhesive with or without proteolytic challenge, the experiment described below was performed.
Ten human molars were polished until occlusal dentin was exposed and were divided according to the surface treatment: a control (no treatment) treatment (G1) and a 5% glutaraldehyde treatment (G2). Samples of G1 were etched with 37% phosphoric acid, rinsed, blotted dried, and One-Step (Bisco, Richmond, BC, Canada) was applied, followed by application of a composite resin used to build-up a “crown.” G2 was treated in the same manner, except that after etching, 5% glutaraldehyde was applied on the surface for 1 hour. After 24 hours, samples were sectioned into 1.0×1.0 mm beams. The beams were subdivided according to the proteolytic challenge: stored in water for 2 hours (no challenge) and stored in 1.5% NaOCl solution for 2 hours. Then samples were rinsed and tested in tensile at a crosshead speed of 1 mm/min using a universal testing machine. Data were statistically analyzed using ANOVA and Fisher's PLSD tests (p<0.05).

[3] = UTS of demineralized dentin after collagenase challenge (Example 7); conditions: for UTS, individual specimens / UTS, mean: 1 h 25% GD or 6.5% GSE
Protocol: The data shown below in Tables 7 to 14 and in FIG. 8 describes the effect of grape seed extract and Glutaraldehyde on the tensile strength of demineralized dentin after collagenase challenge. Samples were treated and then subjected to collagenase digestion.

[4] = Microtensile bond strength of adhesive restoration to sound dentin (Example 2); set-up: species or system human; conditions: 5% glutaraldehyde for 5 minutes, versus control (p=0.2395)
Protocol: Effect of an exogenous collagen cross-linking agent on dentin bonding: In order to analyze the contribution of exogenous collagen cross-linking to sound and caries-affected dentin bonding, demineralized dentin surfaces were treated with 5% glutaraldehyde and the restored specimens were subjected to microtensile bond strength testing.
Specimen preparation: Six human molars stored frozen (−20° C.) for less then one month were used. The teeth presented occlusal caries in which enamel was visually intact. The teeth were thawed, cleaned of adhering soft tissues, and the occlusal surfaces were ground flat with #320 and #600 grit Silicon Carbide (Sic) papers under running water to remove the enamel and expose flat middle dentin, respectively. […]
Microtensile bond test (MTB): After 24 hrs in water at 37° C., the teeth were sectioned into 0.7±0.2 mm thick slabs, and the interfaces trimmed to an hourglass shape using a fine diamond bur to produce a cross-sectional area of 1 mm^2. The thickness of the slabs and the width of the trimmed surface were measured using a digital caliper (Fisher Scientific, New Jersey, N.J.) and specimens in sound and caries-affected dentin were obtained. […] MPa were determined by dividing the fracture load by the cross-sectional area of the interface.

[5] = 24 hrs ammonium bicarbonate buffer, no collagenase
[6] = 24 hrs collagenase 100 ug/ml + ammonium bicarbonate buffer

Structure (SMILES): O=CCCCC=O [GD, glutaraldehyde]
- Ultimate tensile strength, mean ([1]; 4 hours in 0.5% PA): 94.5 MPa
- Ultimate tensile strength, mean ([1]; 40 hours in 0.5% PA): 110.4 MPa
- Ultimate tensile strength, pooled data ([1]; pooled over 4 and 40 hours, 0.5% PA): 102.5 A MPa
- TBS (tensile bond strength) ([2]; No challenge (water 2 hours)): 71.11 (12.20)A MPa
- TBS (tensile bond strength) ([2]; stored in 1.5% NaOCl 2 hours): 65.91 (18.06)AB MPa
- change in TBS values after NaOCl storage ([2]; 5% glutaraldehyde, 1.5% NaOCl 2 hours): not significantly affected
- UTS, individual specimens [3, 5]: 16.93 Mpa and 5.28 Mpa and 9.86 Mpa and 9.57 Mpa and 7.56 Mpa and 8.24 Mpa and 8.76 Mpa and 5.66 Mpa and 7.99 Mpa and 11.97 Mpa and 8.93 Mpa and 7.60 Mpa and 8.38 Mpa
- UTS, mean [3, 5]: 8.98 Mpa and 8.99 Mpa
- UTS, individual specimens [3, 6]: 10.31 Mpa and 16.54 Mpa and 8.71 Mpa and 8.46 Mpa and 5.59 Mpa and 8.18 Mpa and 9.27 Mpa and 12.33 Mpa and 17.30 Mpa and 7.74 Mpa and 9.75 Mpa and 6.29 Mpa and 16.53 Mpa
- UTS, mean [3, 6]: 10.54 Mpa
- effect of collagenase digestion on treated demineralized dentin ([3]; strength values versus baseline (no collagenase treatment), control groups fully digested): not affected by the collagenase treatment
- effect on bond strength [4]: no significant effect
